What was measured:
REH [1] = assay: Cell viability (CellTiter Glo), library of cancer drugs, individual or sample compression with randomized (alphabetical) pools, REH; assay type: cell-based; conditions: REH; for DRS: None (measured individually); for DRS from deconvolution: Samples, 7 Pick 3 randomized (alphabetical) sample pools
How it was run: (§1)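 Cells cultured with each drug individually at 1 nM–10 μM; viability by ATP luminescence (CellTiter Glo) to build dose-response curves and DRS. Samples read singly or pooled alphabetically (each drug in 3 of 7 pools), with pooled DRS recovered by additivity-based SUM deconvolution.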

MOLT-4 [2] = assay: Cell viability (CellTiter Glo), library of cancer drugs, individual or sample compression with randomized (alphabetical) pools, MOLT-4; assay type: cell-based; conditions: for DRS: MOLT-4, None (measured individually); for DRS from deconvolution: MOLT-4, Samples, 7 Pick 3 randomized (alphabetical) sample pools
How it was run: as §1

REH [3] = assay: Cell viability (CellTiter Glo), compressed perturbation pools with informed pool design, MAX-based deconvolution, REH; conditions: for DRS: None (measured individually), informed pool design table; for DRS from MAX-based deconvolution: Samples, 7 Pick 3 informed perturbation pools; for DRS, REH, MAX: compressed perturbation pools, informed pool design, MAX-based deconvolution;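 as to DRS from MAX-based deconvolution: higher DRS means a larger drug effect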
How it was run: (§2)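 Drugs dosed from 1 nM to 10 μM with ATP-luminescence viability, giving a DRS per drug. Pools designed by drug class, with same-class drugs in separate cohorts and clinically toxic pairs kept apart.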

MOLT-4 [4] = assay: Cell viability (CellTiter Glo), compressed perturbation pools with informed pool design, MAX-based deconvolution, MOLT-4; conditions: for DRS: MOLT-4, None (measured individually), informed pool design table; for DRS from MAX-based deconvolution: MOLT-4, Samples, 7 Pick 3 informed perturbation pools; for DRS, MOLT-4, MAX: compressed perturbation pools, informed pool design, MAX-based deconvolution;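 as to DRS from MAX-based deconvolution: higher DRS means a larger drug effect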
How it was run: as §2

REH [5] = assay: Cell viability (CellTiter Glo), compressed perturbation pools with informed pool design, SUM-based deconvolution, REH; set-up: scale not given here
Experimental: (§3) Total cell viability was measured for each sample using an ATP-based luminescence assay (i.e., CellTiter Glo). Each cancer drug was then screened at multiple concentrations ranging from one nM to ten μM in order to generate a dose-response curve and calculate a DRS for each cancer cell line.
(§4) Each cancer drug was cultured with target cells individually. At the end of the screen, samples were either analyzed individually or compressed into pools for analysis. The library was compressed alphabetically into ten cohorts, each of which contained seven cancer drugs present in three out of the seven pools, as shown in Table VII. Said another way, the screening platform 210 generated a “7 pick 3” compressed library by assigning the cancer drugs among different pools. […] The library was also compressed into ten cohorts with pools designed based on information known about each cancer drug, as shown in Table VIII. After cell viability measurement and DRS calculation, the DRS of each cancer drug in the samples generated based on the pools were deconvoluted and compared to the DRS for each cancer drug measured individually.
(§5) In parallel to the exemplary sample compression screen covered in Table VII, perturbations were compressed into pools and then screened. The pools were designed using drug class as a feature with two compression rules (or simply “rules”). The first rule required that drugs from the same class be separated into different cohorts (i.e., mutually exclusive groups of pools). The second rule separated PI3K pathway inhibitors from MAPK pathway inhibitors, as inhibiting these pathways in parallel is known to be synergistic but has not been clinically effective due to dose-limiting toxicities. A benefit of compressing perturbations is the ability to measure additive, antagonistic, and synergistic effects between drugs in the same pool. However, these effects can negatively impact deconvolution of individual drug effects. Therefore, combinations of drugs for which evidence of clinical toxicity exists can be assigned to different pools in accordance with an informed pooling operation. As new preclinical or clinical evidence of toxic combinations becomes available, the rules implemented by the screening platform 210—and more specifically, its algorithm for compressing members of a library—can be updated accordingly.
(§6) In SUM-based deconvolution, an assumption of additivity is used to quantify the individual effects of each perturbation on each target. Additivity implies that each perturbation effect on each target is positively contributing to the overall effect measured for that pool. This is an accurate assumption for certain experiments, such as when targets or samples are compressed. When targets are pooled—or when samples containing different targets are pooled—the effect of each perturbation on each individual target is diluted. In other words, each perturbation has an isolated effect on a target in culture, and the sum total of the isolated effects are measured when pooled. Therefore, SUM-based deconvolution breaks down the sum total measured for a pool and assigns estimated fractional effects to each compressed perturbation or target in the pool. The screening platform 210 used SUM-based deconvolution for all target and sample compression experiments described above.
(§7) As mentioned above, SUM-based deconvolution uses the overlapping pool design to identify relative relationships and ranges for the individual effects of each perturbation. When the overlapping pool design is not sufficient to solve for the polynomials representing perturbation effects, an anchor perturbation can be identified by the screening platform 210 based on rank order and assigned an effect size of zero. The anchor perturbation may be the lowest ranked perturbation in the rank order. This then enables the screening platform 210 to solve for the polynomials for the remaining perturbations.

MOLT-4 [6] = assay: Cell viability (CellTiter Glo), compressed perturbation pools with informed pool design, SUM-based deconvolution, MOLT-4; set-up: scale not given here
Experimental: as §3, §4, §5, §6, §7

CO[C@H]1C[C@@H]2CC[C@@H](C)[C@@](O)(O2)C(=O)C(=O)N2CCCC[C@H]2C(=O)O[C@H]([C@H](C)C[C@@H]2CC[C@@H](OCCO)[C@H](OC)C2)CC(=O)[C@H](C)/C=C(\C)[C@@H](O)[C@@H](OC)C(=O)[C@H](C)C[C@H](C)/C=C/C=C/C=C/1C [Everolimus]
DRS (REH [1]): 7.39
DRS from deconvolution (REH [1]): 7.70
DRS (MOLT-4 [2]): 2.19
DRS from deconvolution (MOLT-4 [2]): 2.35
effect on REH relative to MOLT cell line (REH [3]; REH relative to MOLT): much larger effects on the REH cell line
DRS (REH [3]; REH): 0.23
DRS from MAX-based deconvolution (REH [3]; REH): 0.00
DRS, REH, MAX (REH [3]; REH): 9.02
DRS (MOLT-4 [4]): 0.23
DRS from MAX-based deconvolution (MOLT-4 [4]): 0.00
DRS, MOLT-4, MAX (MOLT-4 [4]): 2.51
DRS, REH, SUM (REH [5]): 9.02
DRS, MOLT-4, SUM (MOLT-4 [6]): 1.42

O=C(/C=C\n1cnc(-c2cc(C(F)(F)F)cc(C(F)(F)F)c2)n1)NNc1cnccn1 [Selinexor]
DRS (REH [1]): 21.81
DRS from deconvolution (REH [1]): 21.40
DRS (MOLT-4 [2]): 24.71
DRS from deconvolution (MOLT-4 [2]): 25.16
DRS (REH [3]; REH): 2.30
DRS from MAX-based deconvolution (REH [3]; REH): 2.51
top hit of cohort (deconvoluted effect size) (REH [3]; REH, informed perturbation pools): top hit
DRS, REH, MAX (REH [3]; REH): 23.72
top hit of cohort (deconvoluted effect size) (MOLT-4 [4]; MOLT, informed perturbation pools): top hit
DRS (MOLT-4 [4]): 0.00
DRS from MAX-based deconvolution (MOLT-4 [4]): 0.00
DRS, MOLT-4, MAX (MOLT-4 [4]): 24.91
DRS, REH, SUM (REH [5]): 26.41
DRS, MOLT-4, SUM (MOLT-4 [6]): 24.24

NC(=O)c1cccc2cn(-c3ccc([C@@H]4CCCNC4)cc3)nc12 [Niraparib]
DRS (REH [1]): 0.70
DRS from deconvolution (REH [1]): 0.59
DRS (MOLT-4 [2]): 4.30
DRS from deconvolution (MOLT-4 [2]): 4.85
DRS (REH [3]; REH): 4.42
DRS from MAX-based deconvolution (REH [3]; REH): 5.23
DRS, REH, MAX (REH [3]; REH): 0.00
DRS (MOLT-4 [4]): 6.12
DRS from MAX-based deconvolution (MOLT-4 [4]): 8.06
DRS, MOLT-4, MAX (MOLT-4 [4]): 0.00
DRS, REH, SUM (REH [5]): 0.00
DRS, MOLT-4, SUM (MOLT-4 [6]): 0.00

COc1cc(OC)cc(N(CCNC(C)C)c2ccc3ncc(-c4cnn(C)c4)nc3c2)c1 [Erdafitinib]
DRS (REH [1]): 4.37
DRS from deconvolution (REH [1]): 4.03
DRS (MOLT-4 [2]): 3.37
DRS from deconvolution (MOLT-4 [2]): 3.41
DRS (REH [3]; REH): 0.38
DRS from MAX-based deconvolution (REH [3]; REH): 0.73
DRS, REH, MAX (REH [3]; REH): 0.00
DRS (MOLT-4 [4]): 0.38
DRS from MAX-based deconvolution (MOLT-4 [4]): 4.94
DRS, MOLT-4, MAX (MOLT-4 [4]): 3.88
DRS, REH, SUM (REH [5]): 0.00
DRS, MOLT-4, SUM (MOLT-4 [6]): 1.38

C[C@@H](Oc1cc(-c2cnn(C3CCNCC3)c2)cnc1N)c1c(Cl)ccc(F)c1Cl [Crizotinib]
DRS (REH [1]): 0.23
DRS from deconvolution (REH [1]): 015
DRS (MOLT-4 [2]): 0.23
DRS from deconvolution (MOLT-4 [2]): 0.28
DRS (REH [3]; REH): 0.27
DRS from MAX-based deconvolution (REH [3]; REH): 0.00
DRS, REH, MAX (REH [3]; REH): 0.00
DRS (MOLT-4 [4]): 0.27
DRS from MAX-based deconvolution (MOLT-4 [4]): 0.27
DRS, MOLT-4, MAX (MOLT-4 [4]): 0.00
DRS, REH, SUM (REH [5]): 0.00
DRS, MOLT-4, SUM (MOLT-4 [6]): 3.06

C#Cc1cccc(Nc2ncnc3cc(OCCOC)c(OCCOC)cc23)c1 [Erlotinib]
DRS (REH [1]): 1.84
DRS from deconvolution (REH [1]): 1.59
DRS (MOLT-4 [2]): 1.04
DRS from deconvolution (MOLT-4 [2]): 0.96
DRS (REH [3]; REH): 5.88
DRS from MAX-based deconvolution (REH [3]; REH): 7.06
DRS, REH, MAX (REH [3]; REH): 0.00
DRS (MOLT-4 [4]): 0.68
DRS from MAX-based deconvolution (MOLT-4 [4]): 5.39
DRS, MOLT-4, MAX (MOLT-4 [4]): 0.00
DRS, REH, SUM (REH [5]): 1.67
DRS, MOLT-4, SUM (MOLT-4 [6]): 1.55

CC[C@H](Nc1ncnc2[nH]cnc12)c1nc2cccc(F)c2c(=O)n1-c1ccccc1 [Idelalisib]
DRS (REH [1]): 0.91
DRS from deconvolution (REH [1]): 0.85
DRS (MOLT-4 [2]): 0.80
DRS from deconvolution (MOLT-4 [2]): 0.69
DRS (REH [3]; REH): 0.30
DRS from MAX-based deconvolution (REH [3]; REH): 0.74
DRS, REH, MAX (REH [3]; REH): 0.00
DRS (MOLT-4 [4]): 0.00
DRS from MAX-based deconvolution (MOLT-4 [4]): 0.00
DRS, MOLT-4, MAX (MOLT-4 [4]): 0.00
DRS, REH, SUM (REH [5]): 0.00
DRS, MOLT-4, SUM (MOLT-4 [6]): 0.54

CNC(=O)c1ccc(N2C(=S)N(c3cnc(C#N)c(C(F)(F)F)c3)C(=O)C23CCC3)cc1F [Apalutamide]
DRS (REH [1]): 0.38
DRS from deconvolution (REH [1]): 0.35
DRS (MOLT-4 [2]): 0.38
DRS from deconvolution (MOLT-4 [2]): 0.33
DRS (REH [3]; REH): 0.00
DRS from MAX-based deconvolution (REH [3]; REH): 0.00
DRS, REH, MAX (REH [3]; REH): 0.73
DRS (MOLT-4 [4]): 0.00
DRS from MAX-based deconvolution (MOLT-4 [4]): 0.00
DRS, MOLT-4, MAX (MOLT-4 [4]): 4.94
DRS, REH, SUM (REH [5]): 0.73
DRS, MOLT-4, SUM (MOLT-4 [6]): 1.88

Cc1ccc(NC(=O)c2ccc(CN3CCN(C)CC3)cc2)cc1Nc1nccc(-c2cccnc2)n1 [Imatinib]
DRS (REH [1]): 1.78
DRS from deconvolution (REH [1]): 1.90
DRS (MOLT-4 [2]): 0.88
DRS from deconvolution (MOLT-4 [2]): 0.89
DRS (REH [3]; REH): 15.29
DRS from MAX-based deconvolution (REH [3]; REH): 18.48
DRS, REH, MAX (REH [3]; REH): 0.00
DRS (MOLT-4 [4]): 13.99
DRS from MAX-based deconvolution (MOLT-4 [4]): 15.14
DRS, MOLT-4, MAX (MOLT-4 [4]): 0.00
DRS, REH, SUM (REH [5]): 1.81
DRS, MOLT-4, SUM (MOLT-4 [6]): 1.34

O=C(/C=C/c1cccc(S(=O)(=O)Nc2ccccc2)c1)NO [Belinostat]
DRS (REH [1]): 16.20
DRS from deconvolution (REH [1]): 15.81
DRS (MOLT-4 [2]): 18.70
DRS from deconvolution (MOLT-4 [2]): 12.21
DRS (REH [3]; REH): 12.12
DRS from MAX-based deconvolution (REH [3]; REH): 14.23
DRS, REH, MAX (REH [3]; REH): 18.94
DRS (MOLT-4 [4]): 13.42
DRS from MAX-based deconvolution (MOLT-4 [4]): 15.55
DRS, MOLT-4, MAX (MOLT-4 [4]): 21.41
DRS, REH, SUM (REH [5]): 18.09
DRS, MOLT-4, SUM (MOLT-4 [6]): 14.77

Reference: patent US20260378560A1, “APPROACHES TO DESIGNING AND PERFORMING COMPRESSED BIOLOGICAL EXPERIMENTS AND SYSTEMS FOR IMPLEMENTING THE SAME” (EXVIVO LABS INC., priority 2023, published 2026)
